Experimental data from patent publication US20170362184A1, “PRO-SURVIVAL COMPOUNDS” (University Court of The University of Glasgow, priority 2014, published 2017).

Key:
[1] = test system: hPSC (hESC cell line H1 and NMF-iPS6); assay: passive differentiation into three germ layers after 30 passages; assay type: cell-based, human; conditions: after 30 consecutive enzymatic passages
Description: HPSC treated for 30 passages with SC332 or Y27632 were passively differentiated for 2 weeks in suspension culture, followed by 2 weeks adherent culture, fixed and stained for markers of the three germ layers. Control cells that had been mechanically passaged and unexposed to any survival compound were also differentiated and stained in the same way. PAX6 is stained in the left hand column, AFP in the centre column and SMA in the right hand column. All cells were co-stained with DAPI. Scale bar represents 100 μm.
The differentiation capacity of hPSC after treatment with SC332 was also assessed. HPSC (hESC cell line H1 and NMF-iPS6) that had been enzymatically passaged with either SC332 or Y27632 for 30 consecutive passages were passively differentiated alongside mechanically maintained cells using a mixture of embryoid body based suspension culture and adherent culture. Differentiated cells were subsequently fixed and stained for markers from each of the three germ layers. […] As expected, untreated mechanically passaged control cells, included as a positive control, were also able to differentiate into each of the three germ layers (FIG. 5).

[2] = test system: pMLC in iPSC (cell line NMF-iPS6); assay: western blot of phosphorylated myosin light chain (pMLC) after dissociation; assay type: cell-based, human; conditions: 15 mins post-dissociation, compared with untreated cells
Protocol: Protein samples were taken from iPSC (cell line NMF-iPS6) that were treated with SC332, Y27632 or had no treatment (control) before being dissociated. Samples were harvested 15 mins, 30 mins, 45 mins, 1 hr, 2 hr and 4 hr post dissociation. Western blot analysis was performed. […] Data shown as mean±SEM, n=3.

[3] = test system: hiPSC NMF-iPSC6; assay: cell survival 24 hrs post enzymatic passage; assay type: cell-based, human; conditions: hiPSC NMF-iPSC6, enzymatically passaged, 24 hrs post passage, mean ±SEM, n=3
Protocol: (§1) Enzymatic passage of hPSC methodology 1. 24 hrs prior to passage (around 70-80% confluence), supply 1 well of near confluent hPSC with 2 ml StemPro supplemented with 30 μM SC332 (done during usual daily feed). 2. At point of passage, remove media and wash cells 1× in PBS (−/−). 3. Add 1.5 ml of TrypLE Select (1×) to well and return to incubator for 2-5 mins to dissociate to single cells. 4. Add 1.5 ml of StemPro to deactivate TrypLE Select and pipette gently using a 5 ml serological pipette (to dissociate any remaining clumps). 5. Transfer cells to 15 ml conical bottomed tube and centrifuge for 3 mins at 300 g. 6. Aspirate as much supernatant as possible and resuspend cell pellet by gently flicking. 7. Resuspend cells in PBS (−/−) and centrifuge again for 3 mins at 300 g. 8. Aspirate PBS (−/−) and resuspend cells in 1 ml of StemPro. Gently pipette using serological pipette. 9. Perform a cell count and replate hPSC at a density of 5×10^5 cells per well of a pre-coated 6 well plate. Top up to 2 mls total with StemPro supplemented with 30 μM SC332. Wells are pre-coated with 0.3 mg/ml fibronectin (recombinant vitronectin fragment can also be used). 10. Return cells to incubator and supply with fresh StemPro on a daily basis. 11. 24 hrs prior to subsequent passages (around 70-80% confluence), supply 1 well of PSC with 2 ml StemPro supplemented with 30 μM SC332 (done during usual daily feed). NB SC332 can be used transiently as described above or can be added to culture medium continuously (still at 30 μM).
(§2) Human pluripotent stem cells (hPSC) were either treated with SC332, Y27632, or left untreated, before being enzymatically passaged. […] In particular, the hESC lines H1, H9 and RC9 and the hiPSC NMF-iPSC6 had cell survival of 72% (±2.9), 73% (±2.8), 69% (±1.9) and 74% (±2.6) respectively when treated with SC332. […] Data shown is the mean survival ±SEM, n=3.

[4] = test system: hESC line H1; assay: cell survival 24 hrs post enzymatic passage; assay type: cell-based, human; conditions: enzymatically passaged, 24 hrs post passage, mean ±SEM, n=3
Protocol: as §1, §2

[5] = test system: hESC line RC9; assay: cell survival 24 hrs post enzymatic passage; assay type: cell-based, human; conditions: enzymatically passaged, 24 hrs post passage, mean ±SEM, n=3
Protocol: as §1, §2

[6] = test system: hESC line H9; assay: cell survival 24 hrs post enzymatic passage; assay type: cell-based, human; conditions: enzymatically passaged, 24 hrs post passage, mean ±SEM, n=3
Protocol: as §1, §2

[7] = test system: hPSC (H1 hESC); assay: cytogenetic stability (karyotype) after 30 consecutive passages; assay type: cell-based, human; conditions: H1 hESC treated for 30 consecutive passages
Description: In addition to this, long term exposure to compound SC332 had no detrimental effect on the karyotypic stability of hPSC (FIGS. 2 and 3).

[8] = biological target: ROCK2 (Rattus norvegicus, UniProt Q62868); assay: radioactive filter-binding kinase assay (33P-ATP); assay type: biochemical
Protocol: (§3) This screen utilises a radioactive filter-binding assay (33P-ATP) to assess the effect of compounds on kinase activity. Results confirmed that SC332 had no inhibitory effect on ROCK2 at a concentration of 10 μM (96% activity. SC332 also had very limited effect on the closely related PRK2, showing 76% and 98% activity when used at 10 μM and 30 μM respectively (FIG. 6).

[9] = biological target: PRK2 (Homo sapiens, UniProt Q16513); assay: radioactive filter-binding kinase assay (33P-ATP); assay type: biochemical
Protocol: as §3

PRK2, sequence (Q16513 501-984 limits assumed, species assumed): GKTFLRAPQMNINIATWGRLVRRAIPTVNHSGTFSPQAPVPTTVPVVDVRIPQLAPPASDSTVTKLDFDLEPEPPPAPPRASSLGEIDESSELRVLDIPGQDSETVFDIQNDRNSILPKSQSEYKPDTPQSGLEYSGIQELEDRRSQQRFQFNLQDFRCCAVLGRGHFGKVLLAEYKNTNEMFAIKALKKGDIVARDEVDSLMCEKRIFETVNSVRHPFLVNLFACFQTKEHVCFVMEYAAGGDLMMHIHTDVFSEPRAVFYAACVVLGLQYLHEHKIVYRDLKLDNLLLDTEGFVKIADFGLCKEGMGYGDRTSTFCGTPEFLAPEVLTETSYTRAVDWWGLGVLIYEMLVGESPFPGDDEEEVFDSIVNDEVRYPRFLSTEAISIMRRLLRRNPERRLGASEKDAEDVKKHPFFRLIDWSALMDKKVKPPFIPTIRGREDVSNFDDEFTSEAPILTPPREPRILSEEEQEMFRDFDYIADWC
ROCK2, sequence (Q62868 2-543 limits assumed): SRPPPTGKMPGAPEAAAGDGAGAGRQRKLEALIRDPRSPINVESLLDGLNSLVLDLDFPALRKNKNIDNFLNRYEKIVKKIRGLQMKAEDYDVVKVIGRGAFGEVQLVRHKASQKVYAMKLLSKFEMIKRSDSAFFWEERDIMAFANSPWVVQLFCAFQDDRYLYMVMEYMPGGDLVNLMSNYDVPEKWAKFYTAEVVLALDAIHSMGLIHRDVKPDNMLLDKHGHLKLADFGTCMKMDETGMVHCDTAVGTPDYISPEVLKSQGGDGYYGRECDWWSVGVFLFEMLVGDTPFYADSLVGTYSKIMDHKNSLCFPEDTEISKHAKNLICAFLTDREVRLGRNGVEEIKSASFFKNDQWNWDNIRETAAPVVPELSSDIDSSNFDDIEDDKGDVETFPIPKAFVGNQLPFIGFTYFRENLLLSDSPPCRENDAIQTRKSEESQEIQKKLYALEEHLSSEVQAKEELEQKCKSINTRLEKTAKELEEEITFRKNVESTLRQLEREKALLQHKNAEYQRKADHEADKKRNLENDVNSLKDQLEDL

SMILES | differentiation towards mesoderm (SMA), endoderm (AFP) or ectoderm (PAX6) [1] | levels of pMLC relative to α-tubulin [2] | cell survival [3] | cell survival [4] | cell survival [5] | cell survival [6] | cytogenetic stability (karyotype) [7] | ROCK2 activity ([8]; 10 μM) | inhibition of ROCK2 (in words) ([8]; 30 μM) | PRK2 activity ([9]; 10 μM) | PRK2 activity ([9]; 30 μM) | inhibition of PRK2 (in words) ([9]; 30 μM)
C[C@@H](N)[C@H]1CC[C@H](C(=O)Nc2ccncc2)CC1 [Y27632, reference compound] | did not block the differentiation | blocked the increase | 74% | 72% | 71% | 73% | karyotypically normal (46, XY) |  |  |  |  | 
Cc1cc(NC(=O)Cn2c(NCc3ccccc3)nc3ccccc32)no1 [SC332, 2-(2-(benzylamino)-1H-benzo[d]imidazol-1-yl)-N-(5-methylisoxazol-3-yl)acetamide] | did not block the differentiation | high levels of pMLC equivalent to those in untreated cells | 74% | 72% | 69% | 73% | karyotypically normal (46, XY) | 96 % activity | did not inhibit | 76 % activity | 98 % activity | did not inhibit
